Patent publication US12721875B2, “Drug for treatment of breast cancer with antler and ginseng as sovereign drug and preparation method and application thereof” (Jilin University, priority 2024, dated 2026)

What was measured:
breast cancer = experiment: Clinical observation and typical clinical cases of breast cancer patients; type: in vivo, human; details: clinical case 1, Abemaciclib and Fulvestrant for 3 days
4T1 breast cancer cells = experiment: 4T1 triple-negative mice breast cancer model, second batch, DTX with or without medium dose preparation, 31 days; type: in vivo, BALB/c mice
Description: after the required amount of 4T1 breast cancer cells were cultured, the cells were resuspended in phosphate-buffered saline (PBS) after trypsin digestion and centrifugation, and the cells were counted and diluted to a cell concentration of 1×10^7 cells/mL. All mice were intraperitoneally injected with 50 mg/kg pentobarbital sodium and 0.5% lidocaine solution for infiltration anesthesia, under anesthesia, 0.1 mL cell suspension of each mouse was inoculated in the third pair of mammary fat pads on the left side, the cotton swab was pressed for a moment to avoid cell outflow after inoculation. During the inoculation process, the pipette blows the cell suspension to ensure uniform suspension.
experimental BALB/c mice were divided into 3 groups with 10 mice in each group. They were the PBS group, chemotherapy […] (DTX) group, and DTX+medium dose (0.85 mg/kg) group.
The mice were administered by gavage on the second day after tumor implantation, the DTX group was intraperitoneally injected with 0.2 mL of DTX, once a week. The DTX+medium dose group was intraperitoneally injected with DTX at the first and fourth weeks of inoculation and combined with the medium dose of Antler-Ginseng compound preparation. The tumor volume (L×W2×0.4) and body weight of mice were measured on the 7th day after inoculation. For a total of 31 days. Flow cytometry analysis: three mice in each group of PBS group and DTX+medium dose group were selected randomly for flow cytometry analysis of tumor tissue and spleen. All statistical analyses were performed by using GraphPad Prism 9.0, P<0.05 was considered statistically significant.
6. The Antler-Ginseng compound preparation reduces the course of chemotherapy and the frequency of medication, and the anti-tumor effect is better than the anti-tumor effect of single-agent chemotherapy. […]

Compound | increase of transaminase (liver function) (breast cancer) [times] | body weight of the experimental animals (4T1 breast cancer cells; DTX once a week, combination with halved chemotherapy frequency plus medium dose preparation) | tumor volume compared with the PBS group (4T1 breast cancer cells; P<0.05) | tumor weight compared with the PBS group (4T1 breast cancer cells; P<0.05)
CCN1CCN(Cc2ccc(Nc3ncc(F)c(-c4cc(F)c5nc(C)n(C(C)C)c5c4)n3)nc2)CC1 [Abemaciclib] | 10 |  |  | 
CC(=O)O[C@@]12CO[C@@H]1C[C@H](O)[C@@]1(C)C(=O)[C@H](O)C3=C(C)[C@@H](OC(=O)[C@H](O)[C@@H](NC(=O)OC(C)(C)C)c4ccccc4)C[C@@](O)([C@@H](OC(=O)c4ccccc4)[C@H]21)C3(C)C [DTX, docetaxel] |  | significantly reduced | significantly lower | significantly lower
